Experiments:
Assay type in all cases: in vivo
[1] = blood parameters in high-fat diet-fed mice; settings: HF diet-fed C57BL/6J mice, Rosi 0.01 g/kg/day oral gavage 4 weeks
Experimental: For part 2, C57BL/6J mice (4 weeks old) were obtained from the National Laboratory Animal Breeding and Research Center. The mice were divided randomly into two groups after 7 days acclimation. […] The compositions of the experimental diets are given in previous studies. After 8 weeks, the high-fat treated mice were randomly subdivided into four groups (n=9) including PTA1 (0.06 g/kg/day), PTA2 (0.12 g/kg/day) or rosiglitazone (Rosi; 1% methylcellulose, 10 mg/kg body weight) (GlaxoSmithKline) or vehicle and treated by oral gavage one time per day from the 9th to 12th weeks, while the mice were still on the high-fat diet, whereas the CON and high-fat control (HF) mice were treated with vehicle only. At the end, food was withheld from the animals (from 10 p.m. to 10 a.m.). The next day, the mice were sacrificed for blood and tissue collection and analysis. Livers, skeletal muscles, and white adipose tissues (WATs) (including epididymal, mesenteric, and retroperitoneal WAT) were weighed and excised, followed by immediate freezing, and kept at −80° C. for target gene analysis. Heparin (30 units/mL) (Sigma) was added to blood samples. Plasma samples were collected within 30 min by centrifugation at 1600 g for 15 min at 4° C. Plasma was obtained for insulin and leptin assay.
Blood samples (0.8 mL) were collected from the retro-orbital sinus of fasted mice, and the glucose level was analyzed by the glucose oxidase method (model 1500; Sidekick Glucose Analyzer; YSI Inc., Yellow Springs, Ohio, USA). Plasma triglycerides (TG), total cholesterol (TC), and free fatty acids (FFA) were measured using commercial assay kits according to the manufacturer's directions (Triglycerides-E test, Cholesterol-E test, and FFA-C test, Wako Pure Chemical, Osaka, Japan). The levels of insulin and leptin in blood were analyzed by ELISA using a commercial assay kit according to the manufacturer's directions (mouse insulin ELISA kit, Sibayagi, Gunma, Japan; and mouse leptin ELISA kit, Morinaga, Yokohama, Japan).

[2] = hepatic lipids in high-fat diet-fed mice; settings: HF diet-fed C57BL/6J mice, Rosi 0.01 g/kg/day oral gavage 4 weeks; mean ± SE, n=9
Text: (§1) For part 2, C57BL/6J mice (4 weeks old) were obtained from the National Laboratory Animal Breeding and Research Center. The mice were divided randomly into two groups after 7 days acclimation. The control (CON) group (n=9) was fed a low-fat diet (diet 12450B, Research Diets, Inc., New Brunswick, N.J., USA), whereas the experimental group was fed a 45% high-fat diet (diet 12451, Research Diets, Inc.) for 12 weeks. The compositions of the experimental diets are given in previous studies. After 8 weeks, the high-fat treated mice were randomly subdivided into four groups (n=9) including PTA1 (0.06 g/kg/day), PTA2 (0.12 g/kg/day) or rosiglitazone (Rosi; 1% methylcellulose, 10 mg/kg body weight) (GlaxoSmithKline) or vehicle and treated by oral gavage one time per day from the 9th to 12th weeks, while the mice were still on the high-fat diet, whereas the CON and high-fat control (HF) mice were treated with vehicle only. At the end, food was withheld from the animals (from 10 p.m. to 10 a.m.). The next day, the mice were sacrificed for blood and tissue collection and analysis. Livers, skeletal muscles, and white adipose tissues (WATs) (including epididymal, mesenteric, and retroperitoneal WAT) were weighed and excised, followed by immediate freezing, and kept at −80° C. for target gene analysis. Heparin (30 units/mL) (Sigma) was added to blood samples. Plasma samples were collected within 30 min by centrifugation at 1600 g for 15 min at 4° C. Plasma was obtained for insulin and leptin assay.
Hepatic lipids were extracted using a previously described protocol. For the hepatic lipid extraction, 0.375 g liver samples were homogenized with 1 mL of distilled water for 5 min. Finally, the dried pellet was resuspended in 0.5 mL of ethanol and analyzed using a triglycerides kit as used for serum lipids.

[3] = test system: epididymal WAT and liver tissue; assay: histopathology of epididymal WAT and liver tissue; settings: HF diet-fed C57BL/6J mice, Rosi 0.01 g/kg/day oral gavage 4 weeks
Text: as §1
Small pieces of epididymal WAT and liver tissue were fixed with formalin (200 g/kg) neutral buffered solution and embedded in paraffin. Sections (8 μm) were cut and stained with hematoxylin and eosin. For microscopic examination, a microscope (Leica, DM2500) was used, and the images were taken using a Leica Digital camera (DFC-425-C).

SMILES: CN(CCOc1ccc(CC2SC(=O)NC2=O)cc1)c1ccccn1 (stereo not drawn) [Rosi, rosiglitazone, reference compound]
- blood glucose ([1]; week 12): 89.7 mg/dL
- Blood profiles: FFA (plasma free fatty acid) ([1]; mean ± SE, n=9): 1.85 ± 0.28 mequiv/L
- Blood profiles: Insulin ([1]; mean ± SE, n=9): 56.4 ± 13.8 μU/mL
- Blood profiles: Leptin ([1]; mean ± SE, n=9): 2.15 ± 0.099 ng/mL
- Blood profiles: TC (total cholesterol) ([1]; mean ± SE, n=9): 140.7 ± 14.1 mg/dL
- Liver lipids: Total lipid [2]: 74.7 ± 5.7 mg/g
- Liver lipids: Triacylglycerol [2]: 43.8 ± 4.7 µmol/g
- average area of adipocytes (epididymal WAT) [3]: 4574.4±162.7 μm^2
- hepatocellular ballooning mean score ([3]; grade 0 none, 1 a few cells, 2 many cells): 0.9±0.2

From patent US20170105953A1, “METHOD FOR SUPPRESSING DIABETES AND/OR HEPATIC LIPIDS USING TORMENTIC ACID” (priority 2015, published 2017)
